Patent publication US12780800B1, “Triazole-pyridinyl substituted azacyclohexyl acetic acid compounds as LPA receptor antagonists” (Viva Star Biosciences Limited, priority 2021, dated 2022)

Each compound was assayed against T1, LPA1 (Homo sapiens, UniProt Q92633) (assay: LPA1 calcium flux assay (LPA1 functional antagonist assay)). Details: PathHunter CHO-K1 EDG2 β-Arrestin cell line; calcium indicator dye; stimulated with EC80 concentration of LPA; FLIPR Tetra.
T1 construct: ProLink (PK) beta-galactosidase enzyme-fragment tag; host or cells: CHO-K1
T1 sequence (Q92633 whole entry, the tested form may be a part): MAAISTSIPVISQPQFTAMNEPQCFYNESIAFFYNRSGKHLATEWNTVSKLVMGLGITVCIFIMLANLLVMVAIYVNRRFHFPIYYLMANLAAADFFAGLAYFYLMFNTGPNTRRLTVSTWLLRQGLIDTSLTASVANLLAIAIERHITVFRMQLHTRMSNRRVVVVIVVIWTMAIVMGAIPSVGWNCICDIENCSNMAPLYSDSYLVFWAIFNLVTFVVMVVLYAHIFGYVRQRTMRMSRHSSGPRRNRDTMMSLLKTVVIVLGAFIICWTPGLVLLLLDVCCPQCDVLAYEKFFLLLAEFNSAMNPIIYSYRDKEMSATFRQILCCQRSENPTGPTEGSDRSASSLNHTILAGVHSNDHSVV
Type: cell-based
In short: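 The LPA1 antagonist readout was intracellular calcium flux, and IC50 values were calculated from it. Plates stood 30 min at RT after compound addition. Cells, grown overnight, had first taken up calcium dye over 45 min at 37 °C.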

First: CCc1nc(-c2cnn(C)c2COc2noc(CC3CC3)n2)ncc1N1C[C@@H](CC(=O)O)CC(F)(F)C1 [Example 118, (S)-2-(1-(2-(5-(((5-(cyclopropylmethyl)-1,2,4-oxadiazol-3-yl)oxy)methyl)-1-methyl-1H-pyrazol-4-yl)-4-ethylpyrimidin-5-yl)-5,5-difluoropiperidin-3-yl)acetic acid]
Second: CCc1nc(-c2cnn(C)c2Cn2cc(C3CC3)ccc2=O)ncc1N1C[C@@H](CC(=O)O)CC(F)(F)C1 [Example 39, (S)-2-(1-(2-(5-((5-cyclopropyl-2-oxopyridin-1(2H)-yl)methyl)-1-methyl-1H-pyrazol-4-yl)-4-ethylpyrimidin-5-yl)-5,5-difluoropiperidin-3-yl)acetic acid]
The IC50 of the first is higher: > 5 µM for the first, 0.5 to 5 µM for the second. The second is the more potent here.

First: CCc1nc(-c2nnn(C)c2COc2cc(-n3nccn3)ncn2)ccc1N1CCC[C@H](CC(=O)O)C1 [Example 98, (R)-2-(1-(6-(5-(((6-(2H-1,2,3-triazol-2-yl)pyrimidin-4-yl)oxy)methyl)-1-methyl-1H-1,2,3-triazol-4-yl)-2-ethylpyridin-3-yl)piperidin-3-yl)acetic acid]
Second: CCc1nc(-c2nnn(C)c2COc2cc(C3CCC3)ncn2)ccc1N1CCC[C@H](CC(=O)O)C1 [Example 80, (R)-2-(1-(6-(5-(((6-cyclobutylpyrimidin-4-yl)oxy)methyl)-1-methyl-1H-1,2,3-triazol-4-yl)-2-ethylpyridin-3-yl)piperidin-3-yl)acetic acid]
The IC50 of the first is higher: 0.1 to 0.5 µM for the first, < 0.1 µM for the second.

CCc1nc(-c2nnn(C)c2Cn2cc(CC3CC3)nn2)ccc1N1C[C@@H](CC(=O)O)CC(F)(F)C1 [Example 131, (S)-2-(1-(6-(5-((4-(cyclopropylmethyl)-1H-1,2,3-triazol-1-yl)methyl)-1-methyl-1H-1,2,3-triazol-4-yl)-2-ethylpyridin-3-yl)-5,5-difluoropiperidin-3-yl)acetic acid] and CCc1nc(-c2nnn(C)c2COc2cn(CC3CC3)nn2)ccc1N1C[C@@H](CC(=O)O)CC(F)(F)C1 [Example 126, (S)-2-(1-(6-(5-(((1-(cyclopropylmethyl)-1H-1,2,3-triazol-4-yl)oxy)methyl)-1-methyl-1H-1,2,3-triazol-4-yl)-2-ethylpyridin-3-yl)-5,5-difluoropiperidin-3-yl)acetic acid] fall in the same range of IC50: 0.1 to 0.5 µM for the first, 0.1 to 0.5 µM for the second.

First: CCc1nc(-c2nnn(C)c2Cn2cc(CC3CCC3)ccc2=O)ccc1N1C[C@@H](CC(=O)O)CC(F)(F)C1 [Example 14, (S)-2-(1-(6-(5-((5-(cyclobutylmethyl)-2-oxopyridin-1(2H)-y)methyl)-1-methyl-1H-1,2,3-triazol-4-yl)-2-ethylpyridin-3-yl)-5,5-difluoropiperidin-3-yl)acetic acid]
Second: CCc1nc(-c2nnn(C)c2Cn2nc(CC3CC3)n(C)c2=O)ccc1N1C[C@@H](CC(=O)O)CC(F)(F)C1 [Example 68, (S)-2-(1-(6-(5-((3-(cyclopropylmethyl)-4-methyl-5-oxo-4,5-dihydro-1H-1,2,4-triazol-1-yl)methyl)-1-methyl-1H-1,2,3-triazol-4-yl)-2-ethylpyridin-3-yl)-5,5-difluoropiperidin-3-yl)acetic acid]
The IC50 of the first is lower: < 0.1 µM for the first, 0.5 to 5 µM for the second. The first is the more potent here.

First: Cc1nc(-c2nnn(C)c2COc2nccc(C3CCC3)n2)ccc1CN1CC(C(=O)O)CC(F)(F)C1 (single isomer, unassigned) [Example 148, (R) or (S)-1-((6-(5-(((4-cyclobutylpyrimidin-2-yl)oxy)methyl)-1-methyl-1H-1,2,3-triazol-4-yl)-2-methylpyridin-3-yl)methyl)-5,5-difluoropiperidine-3-carboxylic acid]
Second: CCc1nc(-c2nnn(C)c2COc2noc(C3CC3)n2)ccc1N1CC(CC(=O)O)CC(F)(F)C1 (stereo in doubt) [Example 114, (R)-2-(1-(6-(5-(((5-cyclopropyl-1,2,4-oxadiazol-3-yl)oxy)methyl)-1-methyl-1H-1,2,3-triazol-4-yl)-2-ethylpyridin-3-yl)-5,5-difluoropiperidin-3-yl)acetic acid]
The IC50 of the first is lower: < 0.1 µM for the first, > 5 µM for the second.

CCc1nc(-c2cnn(C)c2Cn2cc(CC(C)C)ccc2=O)ncc1N1C[C@@H](CC(=O)O)CC(F)(F)C1 [Example 40, (S)-2-(1-(4-ethyl-2-(5-((5-isobutyl-2-oxopyridin-1(2H)-yl)methyl)-1-methyl-1H-pyrazol-4-yl)pyrimidin-5-yl)-5,5-difluoropiperidin-3-yl)acetic acid] and CCCn1cc(OCc2c(-c3ccc(N4C[C@@H](CC(=O)O)CC(F)(F)C4)c(CC)n3)nnn2C)c(=O)cn1 [Example 109, (S)-2-(1-(2-ethyl-6-(1-methyl-5-(((5-oxo-2-propyl-2,5-dihydropyridazin-4-yl)oxy)methyl)-1H-1,2,3-triazol-4-yl)pyridin-3-yl)-5,5-difluoropiperidin-3-yl)acetic acid] fall in the same range of IC50: 0.5 to 5 µM for the first, 0.5 to 5 µM for the second.

Cc1nc(-c2cnn(C)c2COc2cc(-n3cccn3)ncn2)ccc1N1C[C@@H](CC(=O)O)CC(F)(F)C1 [Example 89, (S)-2-(1-(6-(5-(((6-(1H-pyrazol-1-yl)pyrimidin-4-yl)oxy)methyl)-1-methyl-1H-pyrazol-4-yl)-2-methylpyridin-3-yl)-5,5-difluoropiperidin-3-yl)acetic acid] and Cc1nc(-c2nnn(C)c2COc2cc(-n3cccn3)ncn2)ccc1N1C[C@@H](CC(=O)O)CC(F)(F)C1 [Example 78, (S)-2-(1-(6-(5-(((6-(1H-pyrazol-1-yl)pyrimidin-4-yl)oxy)methyl)-1-methyl-1H-1,2,3-triazol-4-yl)-2-methylpyridin-3-yl)-5,5-difluoropiperidin-3-yl)acetic acid] cannot be ordered by IC50: < 0.1 µM for the first, < 0.1 µM for the second.

Cn1nnc(-c2ccc(N3CCC[C@H](CC(=O)O)C3)c(C(F)F)n2)c1Cn1ncc(CC2CC2)n1 [Example 167, (R)-2-(1-(6-(5-((4-(cyclopropylmethyl)-2H-1,2,3-triazol-2-yl)methyl)-1-methyl-1H-1,2,3-triazol-4-yl)-2-(difluoromethyl)pyridin-3-yl)piperidin-3-yl)acetic acid] and Cn1nnc(-c2ccc(N3CCC[C@H](CC(=O)O)C3)c(C(F)F)n2)c1Cn1nncc1CC1CC1 [Example 168, (R)-2-(1-(6-(5-((5-(cyclopropylmethyl)-1H-1,2,3-triazol-1-yl)methyl)-1-methyl-1H-1,2,3-triazol-4-yl)-2-(difluoromethyl)pyridin-3-yl)piperidin-3-yl)acetic acid] cannot be ordered by IC50: < 0.1 µM for the first, < 0.1 µM for the second.

CCCc1ccnn(CCc2c(-c3ccc(N4CC(CC(=O)O)CC(F)(F)C4)c(C)n3)nnn2C)c1=O (centres unmarked) [Example 44, 2-[5,5-difluoro-1-(2-methyl-6-{1-methyl-5-[2-(6-oxo-5-propyl-1,6-dihydropyridazin-1-yl)ethyl]-1H-1,2,3-triazol-4-yl}pyridin-3-yl)piperidin-3-yl]acetic acid] and CCC(C)n1ccn(Cc2c(-c3ccc(N4C[C@@H](CC(=O)O)CC(F)(F)C4)c(C)n3)nnn2C)c1=O (stereo partly drawn) [Example 73, 2-((3S)-1-(6-(5-((3-(sec-butyl)-2-oxo-2,3-dihydro-1H-imidazol-1-yl)methyl)-1-methyl-1H-1,2,3-triazol-4-yl)-2-methylpyridin-3-yl)-5,5-difluoropiperidin-3-yl)acetic acid] cannot be ordered by IC50: > 5 µM for the first, > 5 µM for the second.

First: Cc1nc(-c2nnn(C)c2COc2cc(-n3cccn3)ccn2)ccc1N1CCC[C@H](CC(=O)O)C1 [Example 103, (R)-2-(1-(6-(5-(((4-(1H-pyrazol-1-yl)pyridin-2-yl)oxy)methyl)-1-methyl-1H-1,2,3-triazol-4-yl)-2-methylpyridin-3-yl)piperidin-3-yl)acetic acid]
Second: Cc1nc(-c2nnn(C)c2CN2CCN(CC3CC3)C2=O)ccc1N1CC(CC(=O)O)CC(F)(F)C1 (stereo in doubt) [Example 70, (R)-2-(1-(6-(5-((3-(cyclopropylmethyl)-2-oxoimidazolidin-1-yl)methyl)-1-methyl-1H-1,2,3-triazol-4-yl)-2-methylpyridin-3-yl)-5,5-difluoropiperidin-3-yl)acetic acid]
The IC50 of the first is lower: < 0.1 µM for the first, > 5 µM for the second. The first is the more potent here.

Compared with CCCc1ccc(=O)n(Cc2c(-c3ccc(N4CC(CC(=O)O)CCC4=O)c(CC)n3)nnn2C)c1 (single isomer, unassigned) [Example 55, (S) or (R)-2-(1-(2-ethyl-6-(1-methyl-5-((2-oxo-5-propylpyridin-1(2H)-yl)methyl)-1H-1,2,3-triazol-4-yl)pyridin-3-yl)-6-oxopiperidin-3-yl)acetic acid], CCCc1ccc(=O)n(Cc2c(-c3ccc(CN4CC(C(=O)O)CC(F)(F)C4)c(CC)n3)nnn2C)c1 (single isomer, unassigned) [Example 149, (S) or (R)-1-((2-ethyl-6-(1-methyl-5-((2-oxo-5-propylpyridin-1(2H)-yl)methyl)-1H-1,2,3-triazol-4-yl)pyridin-3-yl)methyl)-5,5-difluoropiperidine-3-carboxylic acid] is lower in IC50: > 5 µM for the first, 0.1 to 0.5 µM for the second. The second is the more potent here.

Work on CCCN(C)C(=O)OCc1c(-c2ccc(N3CCOC(CC(=O)O)C3)c(CC)n2)nnn1C (centres unmarked) [Example 170, 2-(4-(2-ethyl-6-(1-methyl-5-(((methyl(propyl)carbamoyl)oxy)methyl)-1H-1,2,3-triazol-4-yl)pyridin-3-yl)morpholin-2-yl)acetic acid] yielded an IC50 of 0.5 to 5 µM.
